In US7670990B2, “Fungicidal composition comprising a pyridylethylbenzamide derivative and a compound capable of inhibiting mitosis and cell division” (Bayer Cropscience S.A., priority 2004, dated 2010) one finds Emax data, which are given here for two compounds.

This test relates to Erysiphe graminis f. sp. tritici. The experiment in a line: Efficacy against Erysiphe graminis f. sp. tritici on wheat plants (preventive spray treatment). The following applies: Blumeria graminis, single active, wheat sprayed at 1-leaf stage, contaminated after 24 hours, graded 7 to 14 days after contamination vs control plants. In kind it is in vivo. The method, then:
The active ingredients tested are prepared by potter homogenisation in a mixture of acetone/tween/water. This suspension is then diluted with water to obtain the desired active material concentration.
Wheat plants (Audace variety) in starter cups, sown on 50/50 peat soil-pozzolana substrate and grown at 12° C., are treated at the 1-leaf stage (10 cm tall) by spraying with the aqueous suspension described above.
Plants, used as controls, are treated with an aqueous solution not containing the active material.
After 24 hours, the plants are contaminated by dusting them with Erysiphe graminis f. sp. tritici spores, the dusting being carried out using diseased plants.
Grading is carried out 7 to 14 days after the contamination, in comparison with the control plants.

For the compound `O=C(NCCc1ncc(C(F)(F)F)cc1Cl)c1ccccc1C(F)(F)F` [Compound 1, N-{2-[3-chloro-5-(trifluoromethyl)-2-pyridinyl]ethyl}-2-trifluoromethylbenzamide], the Emax at 62.5 g/ha worked out at 42% and the Emax at 125 g/ha was found to be 63%.
Compound `COC(=O)Nc1nc2ccccc2[nH]1` [Carbendazim, carbendazim] returned an Emax at 62.5 g/ha of 0% and an Emax at 125 g/ha of 16%.

In general, Emax refers to the size of the effect at its maximum, as opposed to the concentration needed.
